In patent US12338270B2, “Pharmaceutical composition comprising polypeptide” (D&D Pharmatech Inc., priority 2018, dated 2025):
Non-standard residues stand in square brackets, D forms with d. No end group written: not given here. tri‑branched mPEG‑MAL 50 kDa = tri-branched maleimide-activated monomethoxy PEG, 50 kDa; Aib = CC(C)(N)C(=O)O

Key:
Type in all cases: in vivo
[1] = tested on: db/db mice; assay: ipGTT in db/db mice after 12-day administration; parameters: blood glucose in ipGTT: unit not given here; settings: for blood glucose in ipGTT: db/db mice after 12 days of 20 nmol/kg s.c. once every other day
Method: (§1) Next, to perform an intraperitoneal glucose tolerance test (ipGTT), 2 g/kg of glucose was administered intraperitoneally after the 12-day administration of the drug, and a change in blood glucose with the elapse of time (0, 15, 30, 60, 90, and 120 minutes) was measured. To determine a degree of long-term change in average blood glucose level, a level of glycated hemoglobin (HbA1c) was also measured after the drug administration.

[2] = tested on: obesity animal model (C57BL/6 mice, 60% high-fat diet); assay: intraperitoneal glucose tolerance test (ipGTT) in obesity model after 2-week administration (Experimental Example 3); parameters: blood glucose in ipGTT: unit not given here; settings: after 2 weeks of 20 nmol/kg s.c. once every other day
Method: This experiment was performed in the same manner as in Experimental Example 2, and then the glucose tolerance was evaluated in a mouse model using an intraperitoneal glucose tolerance test (ipGTT).
After the 2-weeks administration of the drugs was completed in the same manner as in Experimental Example 2, 2 g/kg of glucose was administered intraperitoneally to measure a change in blood glucose with the elapse of time (0, 15, 30, 60, 90, and 120 minutes).

[3] = tested on: db/db mice; assay: blood glucose and body weight in db/db mice (Experimental Example 4)
Method: First of all, the conjugate of Example 2 was administered to 7-week-old db/db mice by subcutaneous injection at a dose of 20 nmol/kg once every other day for 12 days. For 12 days when the drug was administered, the changes in blood glucose and body weights were measured once every other day after the drug administration.

[4] = tested on: obesity animal model (C57BL/6 mice, 60% high-fat diet); assay: ipGTT in obesity model, Examples 2 and 6 (Experimental Example 6); settings: 2 g/kg glucose i.p. after 2 weeks of 20 nmol/kg s.c. once every other day; FIG. 6
Method: To check a preventing or therapeutic effect of the conjugates of Examples 2 and 6, which had different amino acid sequences, on obesity or diabetes, an animal model of obesity was prepared by feeding a 60% high-fat diet to normal C57BL/6 mice (approximately 6 weeks old) for approximately 24 weeks, and increasing the body weights of the mice to approximately 50 g in average. Thereafter, each of the conjugates of Examples 2 or 6 was administered by subcutaneous injection at a dose of 20 nmol/kg once every other day for 2 weeks. As the control, PBS was administered instead of the conjugates of Examples. For 2 weeks when the conjugates of Examples 2 or 6 were administered, changes in blood glucose with time were measured. Also, to perform an intraperitoneal glucose tolerance test (ipGTT), 2 g/kg of glucose was administered intraperitoneally after the 2-week administration of the drug, and changes in blood glucose with the elapse of time (0, 15, 30, 60, 90, and 120 minutes) were measured.

[5] = tested on: animal model of non-alcoholic fatty liver diseases (C57BL/6 mice, 60% high-fat diet); assay: non-alcoholic fatty liver disease model, 60% high-fat diet (Experimental Example 7); settings: 20 nmol/kg s.c. once every other day for 2 weeks
Method: Specifically, first of all, a laboratory animal model of non-alcoholic fatty liver diseases was prepared by feeding a 60% high-fat diet to normal C57BL/6 mice (approximately 6 weeks old) for approximately 24 weeks, and increasing the body weights of the mice to approximately 50 g in average. Thereafter, the conjugate of Example 2 was administered by subcutaneous injection at a dose of 20 nmol/kg once every other day for 2 weeks. […] After the 2-week administration of the drug, blood was collected from the mice to measure a serum cholesterol concentration, and the livers were extracted, weighed, embedded in paraffin, and then microtomed into thin slices. Thereafter, the liver biopsy was conducted using a hematoxylin & eosin (H&E).

[6] = tested on: animal model of non-alcoholic fatty liver diseases (C57BL/6 mice, high-trans-fat diet); assay: non-alcoholic fatty liver disease model, high-trans-fat diet (Experimental Example 8); settings: 20 nmol/kg s.c. once every three days for 4 weeks, also lowered vs liraglutide
Method: First of all, a laboratory animal model of non-alcoholic fatty liver diseases was prepared by feeding a high-trans-fat diet, which contained 40% high fats, 20% fructose, and 2% cholesterol, to normal C57BL/6 mice (approximately 6 weeks old) for approximately 16 weeks. Thereafter, the conjugate of Example 2 was administered by subcutaneous injection at a dose of 20 nmol/kg once every three days for 4 weeks. […] After the 4-week experiment was completed, a level of serum cholesterol, the liver weights, and the hepatic triglycerides (hepatic TGs) were measured.

[7] = tested on: animal model of non-alcoholic fatty liver diseases (C57BL/6 mice, high-trans-fat diet); assay: liver biopsy and NAFLD activity score, high-trans-fat diet model (Experimental Example 9); settings: 20 nmol/kg s.c. once every three days for 4 weeks
Method: After the experiment was conducted in the same manner as in Experimental Example 8, a liver biopsy was conducted and an NAFLD activity score (NAS) was measured to check a preventing or therapeutic effect on non-alcoholic fatty liver diseases. An experiment was performed in the same manner as in Experimental Example 8, after the 4-week administration of the conjugate of Example 2, the mouse livers were extracted, embedded in paraffin, and then microtomed into thin slices. Thereafter, a hematoxylin & eosin (H&E) stain and an oil-red-O stain were conducted.

[8] = tested on: db/db mice; assay: glycated hemoglobin (HbA1c) in db/db mice after administration; settings: db/db mice after administration of 20 nmol/kg s.c. once every other day; FIG. 3
Method: as §1

[9] = 0 min after 2 g/kg glucose i.p.
[10] = 15 min after 2 g/kg glucose i.p.
[11] = 30 min after 2 g/kg glucose i.p.
[12] = 60 min after 2 g/kg glucose i.p.
[13] = 90 min after 2 g/kg glucose i.p.
[14] = 120 min after 2 g/kg glucose i.p.
[15] = 20 nmol/kg s.c. once every other day for 12 days
[16] = day 0, 20 nmol/kg s.c. once every other day
[17] = day 2, 20 nmol/kg s.c. once every other day
[18] = day 4, 20 nmol/kg s.c. once every other day
[19] = day 6, 20 nmol/kg s.c. once every other day
[20] = day 8, 20 nmol/kg s.c. once every other day
[21] = day 10, 20 nmol/kg s.c. once every other day
[22] = day 12, 20 nmol/kg s.c. once every other day

Substance: Example 2: Conjugate of polypeptide H(Aib)QGTFTSDYSKYLDEQAAKEFVQWLMNTC (SEQ ID NO. 2) and tri-branched mPEG-MAL (MW: 50 kDa) (H[Aib]QGTFTSDYSKYLDEQAAKEFVQWLMNTC(tri‑branched mPEG‑MAL 50 kDa); lactam (positions not given here); not fully specified (bridges); printed as H(Aib)QGTFTSDYSKYLDEQAAKEFVQWLMNTC)
- blood glucose in ipGTT [1, 9]: 63
- blood glucose in ipGTT [1, 10]: 190
- blood glucose in ipGTT [1, 11]: 246
- blood glucose in ipGTT [1, 12]: 341
- blood glucose in ipGTT [1, 13]: 356
- blood glucose in ipGTT [1, 14]: 396
- glucose tolerance in ipGTT ([1]; db/db mice after 12-day administration): higher glucose tolerance than the non-treated group
- blood glucose in ipGTT [2, 9]: 40
- blood glucose in ipGTT [2, 10]: 216
- blood glucose in ipGTT [2, 11]: 172
- blood glucose in ipGTT [2, 12]: 61
- blood glucose in ipGTT [2, 13]: 48
- blood glucose in ipGTT [2, 14]: 44
- increase in blood glucose in ipGTT vs non-treated group [2]: an increase in blood glucose was significantly reduced
- body weight vs non-treated group [3, 15]: body weight loss was observed
- level of blood glucose vs non-treated group [3, 15]: a level of blood glucose was lowered
- Blood glucose [3, 16]: 100%
- Body weight [3, 16]: 100%
- Blood glucose [3, 17]: 88%
- Body weight [3, 17]: 96%
- Blood glucose [3, 18]: 34%
- Body weight [3, 18]: 91%
- Blood glucose [3, 19]: 25%
- Body weight [3, 19]: 86%
- Blood glucose [3, 20]: 17%
- Body weight [3, 20]: 84%
- Blood glucose [3, 21]: 17%
- Body weight [3, 21]: 79%
- Blood glucose [3, 22]: 16%
- Body weight [3, 22]: 76%
- increase in blood glucose in ipGTT vs control [4]: an increase in blood glucose was significantly reduced
- hepatic steatosis in liver biopsy vs non-treated group ([5]; H&E, also reduced vs liraglutide, FIG. 9): significantly reduced
- level of serum cholesterol vs non-treated group ([5]; also lowered vs liraglutide, FIG. 7): significantly lowered
- liver weights vs non-treated group ([5]; also lowered vs liraglutide, FIG. 8): significantly lowered
- level of serum cholesterol vs non-treated group ([6]; FIG. 10): significantly lowered
- liver weights vs non-treated group ([6]; FIG. 11): significantly lowered
- hepatic triglycerides vs non-treated group ([6]; FIG. 12): significantly lowered
- hepatic steatosis vs non-treated group and positive control ([7]; FIG. 13): significantly reduced
- NAFLD activity score (NAS) vs non-treated group and positive control ([7]; FIG. 14): significantly reduced
- level of glycated hemoglobin (HbA1c) [8]: significantly lower a level of glycated hemoglobin
